Source: patent US11135214B2, “Methods for enhancing the bio availability and exposure of a voltage-gated potassium channel opener” (priority 2018, dated 2021)
Where “and” joins values, the source holds several entries; their conditions need not be identical. Equal values may be shown once. Read-outs that look alike come from different tables or passages of the source.

Assay: TMS crossover study, pharmacokinetic analysis
Format: in vivo, human
Settings: for extrapolated area (% AUCextrap): full PK data set; for Compound A Plasma Concentration: individual subjects; for concentration at 2 h / concentration at 4 h / concentration at 6 h / half-life / AUC(0-t) / Cmax / Tmax / AUC(0-inf) / MRT inf / MRT last / CL/F / Vd/F: male, human, plasma, oral; for Vd/F: read-out: Vz/F normalized
Protocol: A randomized, double-blind, placebo-controlled, transcranial magnetic stimulation (TMS) crossover study investigated the safety, tolerability, pharmacokinetics (PK), and pharmacodynamics (PD) of single doses of Compound A in healthy right-handed male subjects.
Twenty healthy right-handed male subjects were enrolled and randomized in a blinded fashion to receive a single oral dose of 20 mg Compound A or placebo (1:1 randomization ratio) on Day 1, then were crossed over to receive a single dose of the other treatment on Day 7.
Subjects were screened within 27 days prior to entering the study on Day 1. For Period 1, subjects were admitted to the study unit and dosed on Day 1, and discharged on Day 2. For Period 2, following a washout of 6 days, the same subjects were again admitted to the study unit and dosed on Day 7, and discharged on Day 8. All subjects returned to the clinical unit for an outpatient visit on Day 14, and received a follow-up telephone call on Day 37.
Subjects were dosed in a fed state, but the timing of dosing relative to meals was changed during the study, and varied between a high fat or standard meal eaten either 2 h or 30 minutes prior to dosing, and a high fat or standard meal eaten 1 h or 2.5 h after dosing.
The PK parameters for this study were summarized in two ways. Firstly, PK parameters were calculated where possible using the PK samples collected during each 24 h sampling period for Period 1 and Period 2 separately. Secondly, PK parameters were determined using samples beyond the 24 h sampling period (i.e., from Day 7/8 and/or Day 14). For subjects who received Compound A in the first period, PK samples taken prior to placebo treatment provided additional PK timepoints at >24 h. For subjects who received Compound A in the second period, there was no >24 h PK timepoint until a Day 14 PK sample was added. […] The full PK profile data set consists of the 16 subjects for whom PK samples were taken at >24 h post-dose. For discussion of the PK parameters below, the full PK profile data set was generally used, because it allowed more accurate estimation of PK parameters.
Initially, subjects were dosed 2 hours after a high fat meal with a relatively high fat lunch provided 1 hour after dosing. After blinded review of the PK profiles in the initial 8 subjects, the fat content of the lunch was reduced in an attempt to reduce the time to Tmax, so that the Cmax would fall within the timeframe of TMS measurements. In addition, the timing of the meal relative to dose was changed from 2 hours prior, to 30 minutes prior to dose and subsequently the fat content of the breakfast was reduced. All these changes were made in attempts to provide higher plasma levels during the TMS assessment periods. The timing and type of meal for each subject is specified in Table 13. […] As such the PK data is presented without categorization according to meal content, or relative timing of the meal.

[1] = 20 mg, Full PK Profile (N=16), Mean ± SD
[2] = 20 mg, Full PK Profile (N=16), Range
[3] = 20 mg, Full PK Profile Data Set (N=16), Range
[4] = 20 mg, Full PK Profile Data Set (N=16), Mean ± SD

Structure (SMILES): Cc1cc(N2CCc3cc(F)ccc3C2)cc(C)c1NC(=O)CC(C)(C)C [Compound A, N-[4-(6-fluoro-3,4-dihydro-1H-isoquinolin-2-yl)-2,6-dimethylphenyl]-3,3-dimethylbutanamide]
- time of median peak plasma concentrations after administration (20 mg oral dose): approximately 8 hours
- Tlast [1]: 235 ± 81.5 h
- Tlast [2]: 142 to 360 h
- MRTinf [3]: 33 ± 304 h
- t1/2 [3]: 48.2 ± 306 h
- Tlast (20 mg, Overall (N=20), Mean): 23.8 h
- Tlast (20 mg, Overall (N=20), Range): 23.1 to 24.3 h
- Tlast (20 mg, Period 1 (N=10), Mean): 23.8 h
- Tlast (20 mg, Period 1 (N=10), Range): 23.1 to 24.3 h
- Tlast (20 mg, Period 2 (N=10), Mean): 23.8 h
- Tlast (20 mg, Period 2 (N=10), Range): 23.5 to 24.1 h
- % AUCextrap, highest values (20 mg, a number of subjects above 20%): ≤ 40%
- extrapolated area (% AUCextrap) (20 mg, median): 19.9%
- extrapolated area (% AUCextrap) (20 mg, range): 10.6-40.5%
- Compound A Plasma Concentration (Compound A Treatment Period, 20 mg, 2 h, 5 minutes before TMS): 47.2 ng/mL and 1.55 ng/mL and 34 ng/mL and 0 ng/mL (5×) and 55.2 ng/mL and 10.6 ng/mL and 47.1 ng/mL and 3.1 ng/mL and 1.95 ng/mL and 25.7 ng/mL and 2.74 ng/mL and 10.7 ng/mL and 2.52 ng/mL and 8.01 ng/mL
- Compound A Plasma Concentration (Compound A Treatment Period, 20 mg, 4 h, 5 minutes before TMS): 38.7 ng/mL and 8.92 ng/mL and 48.4 ng/mL and 16.5 ng/mL and 50 ng/mL and 24.5 ng/mL and 38 ng/mL and 4.91 ng/mL and 2.54 ng/mL and 29.8 ng/mL and 4.06 ng/mL and 60.7 ng/mL and 22.3 ng/mL and 32.7 ng/mL and 52.1 ng/mL and 8.77 ng/mL and 41.9 ng/mL
- Compound A Plasma Concentration (Compound A Treatment Period, 20 mg, 6 h, 5 minutes before TMS): 49.7 ng/mL and 71.2 ng/mL and 48.5 ng/mL and 47.0 ng/mL and 39.1 ng/mL and 37.6 ng/mL and 4.43 ng/mL and 51.9 ng/mL and 6.23 ng/mL and 57.6 ng/mL and 53.2 ng/mL and 54.9 ng/mL and 52.2 ng/mL and 25.1 ng/mL and 79.4 ng/mL
- Compound A Plasma Concentration (Placebo Treatment Period (carry-over), 2 h): 0 ng/mL (9×) and 4.96 ng/mL and 5.27 ng/mL and 6.28 ng/mL and 3.81 ng/mL and 5.74 ng/mL and 3.94 ng/mL and 7.44 ng/mL and 8.04 ng/mL
- Compound A Plasma Concentration (Placebo Treatment Period (carry-over), 4 h): 0 ng/mL (9×) and 4.35 ng/mL and 4.48 ng/mL and 5.51 ng/mL and 3.6 ng/mL and 5.36 ng/mL and 3.66 ng/mL and 6.83 ng/mL and 8.15 ng/mL
- Compound A Plasma Concentration (Placebo Treatment Period (carry-over), 6 h): 0 ng/mL (8×) and 5.56 ng/mL and 5.75 ng/mL and 3.42 ng/mL and 5.61 ng/mL and 3.44 ng/mL and 6.67 ng/mL and 8.22 ng/mL
- Average high concentration of Compound A (during TMS assessment (FIG. 11, 12)): 45 ng/mL
- concentration at 2 h (20 mg, Compound A Treatment Period, 2 h, Mean): 15.9 ng/mL
- concentration at 4 h (20 mg, Compound A Treatment Period, 4 h, Mean): 30.1 ng/mL
- concentration at 6 h (20 mg, Compound A Treatment Period, 6 h, Mean): 42.1 ng/mL
- half-life [1]: 127 ± 84.6 h
- AUC(0-t) (20 mg, Full PK Profile (N=16), Mean ± SD, read-out: AUC0-24): 692 ± 151 ng·h/mL
- Cmax (20 mg, Full PK Profile (N=16), Mean ± SD, read-out: Cmax): 60.1 ± 14.9 ng/mL
- Tmax (20 mg, Full PK Profile (N=16), Median): 6.83 h
- Tmax [2]: 1.92 to 12 h
- half-life [2]: 48.2 to 306 h
- AUC(0-t) (20 mg, Full PK Profile (N=16), Range, read-out: AUC0-24): 383 to 951 ng·h/mL
- Cmax (20 mg, Full PK Profile (N=16), Range, read-out: Cmax): 29.9 to 79.4 ng/mL
- AUC(0-inf) [4]: 3160 ng·h/mL
- MRT inf [4]: 102 h
- MRT last [4]: 77.4 ± 23.7 h
- half-life [4]: 127 h
- AUC(0-t) (20 mg, Full PK Profile Data Set (N=16), Mean ± SD, read-out: AUClast): 2370 ng·h/mL
- CL/F (20 mg, Full PK Profile Data Set (N=16), Mean ± SD, read-out: CL/F normalized (converted)): 1.62 mL/min/kg
- Vd/F [4]: 16.3 L/kg
- AUC(0-inf) [3]: 1920 ± 7390 ng·h/mL
- MRT inf [3]: 33 to 304 h
- MRT last [3]: 48.2 ± 122 h
- half-life [3]: 48.2 to 306 h
- AUC(0-t) (20 mg, Full PK Profile Data Set (N=16), Range, read-out: AUClast): 1580 ± 4400 ng·h/mL
- CL/F (20 mg, Full PK Profile Data Set (N=16), Range, read-out: CL/F normalized (converted)): 0.672 mL/min/kg
- Vd/F [3]: 6.4 ± 33.8 L/kg
- half-life (20 mg, Overall (N=20), 24 h sampling, Mean ± SD): 11.1 ± 2.6 h
- half-life (20 mg, Overall (N=20), 24 h sampling, Range): 8.01 to 14.9 h
- AUC(0-t) (20 mg, Overall (N=20), Mean ± SD, read-out: AUC0-24): 687 ± 160 ng·h/mL
- Cmax (20 mg, Overall (N=20), Mean ± SD, read-out: Cmax): 59.2 ± 13.8 ng/mL
- Tmax (20 mg, Overall (N=20), Median): 7.8 h
- Tmax (20 mg, Overall (N=20), Range): 1.9 to 12 h
- AUC(0-t) (20 mg, Overall (N=20), Range, read-out: AUC0-24): 358 to 951 ng·h/mL
- Cmax (20 mg, Overall (N=20), Range, read-out: Cmax): 29.9 to 79.4 ng/mL
- half-life (20 mg, Period 1 (N=10), 24 h sampling, Mean ± SD): 11.4 ± 2.6 h
- half-life (20 mg, Period 1 (N=10), 24 h sampling, Range): 8.46 to 14.9 h
- AUC(0-t) (20 mg, Period 1 (N=10), Mean ± SD, read-out: AUC0-24): 693 ± 184 ng·h/mL
- Cmax (20 mg, Period 1 (N=10), Mean ± SD, read-out: Cmax): 60.2 ± 17.3 ng/mL
- Tmax (20 mg, Period 1 (N=10), Median): 6.94 h
- Tmax (20 mg, Period 1 (N=10), Range): 1.92 to 12 h
- AUC(0-t) (20 mg, Period 1 (N=10), Range, read-out: AUC0-24): 383 to 951 ng·h/mL
- Cmax (20 mg, Period 1 (N=10), Range, read-out: Cmax): 29.9 to 77.1 ng/mL
- half-life (20 mg, Period 2 (N=10), 24 h sampling, Mean ± SD): 10.6 ± 2.9 h
- half-life (20 mg, Period 2 (N=10), 24 h sampling, Range): 8.01 to 14.3 h
- AUC(0-t) (20 mg, Period 2 (N=10), Mean ± SD, read-out: AUC0-24): 681 ± 142 ng·h/mL
- Cmax (20 mg, Period 2 (N=10), Mean ± SD, read-out: Cmax): 58.3 ± 9.94 ng/mL
- Tmax (20 mg, Period 2 (N=10), Median): 7.83 h
- Tmax (20 mg, Period 2 (N=10), Range): 1.92 to 8.15 h
- AUC(0-t) (20 mg, Period 2 (N=10), Range, read-out: AUC0-24): 358 to 869 ng·h/mL
- Cmax (20 mg, Period 2 (N=10), Range, read-out: Cmax): 46.2 to 79.4 ng/mL
- concentration at 2 h (20 mg, Placebo Treatment Period (carry-over), 2 h, Mean, read-out: Compound A Plasma Concentration): 5.46 ng/mL
- concentration at 4 h (20 mg, Placebo Treatment Period (carry-over), 4 h, Mean, read-out: Compound A Plasma Concentration): 5.17 ng/mL
- concentration at 6 h (20 mg, Placebo Treatment Period (carry-over), 6 h, Mean, read-out: Compound A Plasma Concentration): 5.28 ng/mL
- CL/F (20 mg, equivalent of 97.5 mL/h/kg, read-out: Body weight normalized clearance (CL/F)): ~1.6 mL/min/kg
- Cmax (20 mg, subjects who received placebo in Period 2, mean, read-out: Cmax of Compound A in placebo treatment period): 5.84 ng/mL
- Cmax (20 mg, subjects who received placebo in Period 2, range, read-out: Cmax of Compound A in placebo treatment period): 3.34 to 9.61 ng/mL
